Biological target: T1, Neurotensin receptor type 1 (Homo sapiens, UniProt P30989)
Assay: Antagonist activity at NTSR1 (unknown origin) expressed in CHO cells assessed as inhibition of NT(8-13) peptide-induced change in intracellular Ca2+ level preincubated for 45 mins by FLIPR assay
Type: functional, cell-based

T1 sequence (P30989 whole entry): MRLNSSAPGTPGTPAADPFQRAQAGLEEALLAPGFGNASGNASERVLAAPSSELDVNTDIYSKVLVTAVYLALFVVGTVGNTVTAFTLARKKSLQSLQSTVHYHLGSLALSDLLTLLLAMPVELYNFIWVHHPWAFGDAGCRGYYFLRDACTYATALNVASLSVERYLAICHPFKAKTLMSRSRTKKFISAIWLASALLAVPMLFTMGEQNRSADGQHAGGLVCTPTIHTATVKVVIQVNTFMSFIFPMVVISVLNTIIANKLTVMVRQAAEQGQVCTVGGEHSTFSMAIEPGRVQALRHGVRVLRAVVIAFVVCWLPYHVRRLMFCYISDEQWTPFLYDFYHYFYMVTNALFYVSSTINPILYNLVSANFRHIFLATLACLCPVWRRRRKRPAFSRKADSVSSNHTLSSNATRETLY

IC50 [µM] | SMILES
0.004 | COc1cccc(OC)c1-c1cc(C(=O)NC2(C(=O)O)C3CC4CC(C3)CC2C4)nn1-c1ccc(C(=O)N(C)CCCN(C)C)cc1C(C)C (centres undefined)
0.082 | COc1cccc(OC)c1-c1cc(C(=O)NC2(C(=O)O)C3CC4CC(C3)CC2C4)nn1-c1ccnc2cc(Cl)ccc12 (centres undefined) [REMINERTANT]

Biological target: T1, Neurotensin receptor type 1
Assay: Agonist activity at NTSR1 (unknown origin) expressed in CHO cells assessed as potentiation of NT(8-13) peptide-induced change in intracellular Ca2+ level preincubated for 45 mins by FLIPR assay
Type: functional, cell-based

SMILES | EC50 [µM]
CC(C)C[C@H](NC(=O)Cn1ccc2cc(-c3cnc4ccccc4c3)ccc21)C(=O)O | 2.05
CC(C)C[C@H](NC(=O)Cn1ccc2ccccc21)C(=O)O | 6.65
CC(C)C[C@H](NC(=O)Cn1ccc2cc(Br)ccc21)C(=O)O | 9.99
CC(C)C[C@H](NC(=O)Cn1ccc2cc(N)ccc21)C(=O)O | 25.8
CC(C)C[C@H](NC(=O)Cn1ccc2cc(-c3ccccc3)ccc21)C(=O)O | 9.44
CC(C)C[C@H](NC(=O)Cn1ccc2cc(-c3cccnc3)ccc21)C(=O)O | 15.4
CC(C)C[C@H](NC(=O)Cn1ccc2cc(-c3cccc4ccccc34)ccc21)C(=O)O | 3.26
CC(C)C[C@H](NC(=O)Cn1ccc2cc(NS(=O)(=O)c3cccc4ccccc34)ccc21)C(=O)O | 9.39
CC(C)C[C@H](NC(=O)Cn1ccc2cc(-c3cncc4ccccc34)ccc21)C(=O)O | 3.24
CC(C)C[C@H](NC(=O)Cn1ccc2cc(Nc3ccc4cnccc4c3)ccc21)C(=O)O | 7.72
CC(C)C[C@@H](CO)NC(=O)Cn1ccc2cc(-c3cnc4ccccc4c3)ccc21 | > 100
CC(C)C[C@H](NC(=O)Cn1ccc2cc(-c3cnc4ccccc4c3)ccc21)c1nn[nH]n1 | 5.17
O=C(O)CNC(=O)Cn1ccc2cc(-c3cnc4ccccc4c3)ccc21 | > 100
C[C@H](NC(=O)Cn1ccc2cc(-c3cnc4ccccc4c3)ccc21)C(=O)O | > 100
CC(C)[C@H](NC(=O)Cn1ccc2cc(-c3cnc4ccccc4c3)ccc21)C(=O)O | > 100
O=C(Cn1ccc2cc(-c3cnc4ccccc4c3)ccc21)N[C@@H](Cc1ccccc1)C(=O)O | 4.33
COC(=O)[C@H](CC(C)C)NC(=O)Cn1ccc2cc(-c3cccc4ccccc34)ccc21 | > 100
O=C(O)CNC(=O)Cn1ccc2cc(-c3cccc4ccccc34)ccc21 | > 100
CC(C)[C@H](NC(=O)Cn1ccc2cc(-c3cccc4ccccc34)ccc21)C(=O)O | > 100
CC(C)C[C@@H](NC(=O)Cn1ccc2cc(-c3cccc4ccccc34)ccc21)C(=O)O | > 100
COC(=O)[C@@H](CC(C)C)NC(=O)Cn1ccc2cc(-c3cccc4ccccc34)ccc21 | > 100
CC(C)C[C@H](NC(=O)Cn1ccc2ccc(-c3cccc4ccccc34)cc21)C(=O)O | 2.85
CC(C)C[C@H](NC(=O)Cn1ccc2cc(NS(=O)(=O)c3cccc4cccnc34)ccc21)C(=O)O | 8.99

Now from value to molecule:

EC50 [µM] | SMILES
55.1 | CC(C)C[C@H](NC(=O)Cn1ccc2cc(NC(=O)c3ccnc4ccccc34)ccc21)C(=O)O
4.96 | CC(C)C[C@H](NC(=O)Cn1ccc2cc(-c3cccc4cnccc34)ccc21)C(=O)O
24.2 | COc1cccc(CC(=O)Nc2ccc3c(ccn3CC(=O)N[C@@H](CC(C)C)C(=O)O)c2)c1
2.12 | CC(C)C[C@H](NC(=O)Cn1ccc2cc(N(Cc3ccnc4ccccc34)Cc3ccnc4ccccc34)ccc21)C(=O)O
> 100 | COC(=O)[C@H](CC(C)C)NC(=O)Cn1ccc2cc(-c3cnc4ccccc4c3)ccc21
> 100 | CC(C)C[C@@H](NC(=O)Cn1ccc2cc(-c3cnc4ccccc4c3)ccc21)C(=O)O
> 100 | COC(=O)[C@@H](CC(C)C)NC(=O)Cn1ccc2cc(-c3cnc4ccccc4c3)ccc21
3.28 | CC(C)C[C@H](NC(=O)Cn1ccc2ccc(-c3cnc4ccccc4c3)cc21)C(=O)O
7.46 | CC(C)C[C@H](NC(=O)Cn1ccc2ccc(-c3cncc4ccccc34)cc21)C(=O)O

Source: ChEMBL document CHEMBL3351689, “The discovery of indole full agonists of the neurotensin receptor 1 (NTSR1)” (Bioorg Med Chem Lett, 2014)
